Assay results: patent publication US7033772B1, “Methods of identifying inhibitors of fatty acid transport proteins (FATP)” (Millennium Pharmaceuticals, Inc., priority 1998, dated 2006)
Read-outs that look alike come from different tables or passages of the source.

Tests used:
FATP4 = molecular target: T1, FATP4 (Homo sapiens, UniProt Q6P1M0); assay: Competition of Bodipy-FA uptake by FATP4 expressing cells (FACS); assay type: cell-based; conditions: for inhibition at 100 µM: read-out: Competition (inhibition of Bodipy-FA uptake)
T1 construct: expressed in transfected cells; host or cells: 293 cells (human kidney), stably transfected with pIRES-neo-hsFATP4, G418-selected
Procedure: Bodipy-FA uptake assays using FACS were performed, adapted to a 96-well format. LCFA uptake assays with enterocytes or with stably transfected 293 cells were done as follows. Mixed micelles of radiolabeled FA (NEN) and taurocholate (Sigma) in HBS were generated by brief sonication at 37° C. […] Final taurocholate concentration was 5 mM. Cells were incubated for the indicated amount of time at 37° C. The assay was stopped by transferring the cells onto filter paper followed by extensive washes with ice-cold HBS containing 0.1% BSA using a cell harvester (Brandell). Incorporated oleate was then determined by β-scintillation counting (Beckman).

293 cells = assay: Uptake of radiolabeled substrates by control (vector) 293 cells; assay type: cell-based, human; conditions: 10 μM substrate in HBS with 5 mM taurocholate; rate over 4 min
Procedure: (§1) Several of the cell lines with the highest amount of Bodipy-FA uptake as well as isolated primary enterocytes were used to measure the uptake of radiolabeled FAs.
(§2) Bodipy-FA uptake assays using FACS were performed, adapted to a 96-well format. LCFA uptake assays with enterocytes or with stably transfected 293 cells were done as follows. Mixed micelles of radiolabeled FA (NEN) and taurocholate (Sigma) in HBS were generated by brief sonication at 37° C. Equal volumes of cells and micelle solution were mixed, resulting in a final FA concentration of 25 μM for antisense assays and 10 μM for substrate specificity assays. Final taurocholate concentration was 5 mM. Cells were incubated for the indicated amount of time at 37° C. The assay was stopped by transferring the cells onto filter paper followed by extensive washes with ice-cold HBS containing 0.1% BSA using a cell harvester (Brandell). Incorporated oleate was then determined by β-scintillation counting (Beckman).

enterocytes [1] = assay: Uptake of radiolabeled substrates by isolated primary enterocytes; assay type: cell-based, mouse; conditions: for Uptake, Enterocytes: 10 μM substrate in HBS with 5 mM taurocholate, rate over 4 min; for Transport of the substrate by isolated primary enterocytes (in words): compared with transfected 293 cells
Procedure: as §1, §2

hsFATP4 = molecular target: T2, hsFATP4 (Homo sapiens, UniProt Q6P1M0); assay: Uptake of radiolabeled substrates by 293 cells stably expressing FATP4; assay type: cell-based; conditions: for Uptake, 293 Cells Stably Expressing FATP4: 10 μM substrate in HBS with 5 mM taurocholate, rate over 4 min; for Uptake, FATP4 specific: FATP4-expressing minus control 293 cells, 10 μM substrate, 5 mM taurocholate; for Effect of hsFATP4 expression on uptake of the substrate (in words): stably transfected 293 cells vs vector
T2 construct: expressed in transfected cells; host or cells: 293 cells (human kidney), stably transfected with pIRES-neo-hsFATP4, G418-selected
Procedure: Using a mammalian expression vector, we generated 40 stable […] cell lines expressing hsFATP4 and 20 cell lines transfected with a control plasmid.
as §1, §2

enterocytes [2] = assay: 35S-methionine uptake by cultured enterocytes after oligonucleotide treatment (specificity control); assay type: cell-based, mouse; conditions: 100 μM oligonucleotide, 48 h; FIG. 42
Procedure: As a further control experiment, the uptake of oleate was measured along with the uptake of methionine in the same cultured enterocytes. Antisense oligonucleotide, mismatch sequence oligonucleotide, or no oligonucleotide was added to a concentration of 100 μM to cultures of enterocytes. After incubation for 48 hours, the uptake of both ^3H-labeled oleate and ^35S-labeled methionine was assayed. Fatty acid uptake is at the left side of the paired bars; methionine uptake is on the right side of the paired bars.

FATP4 mRNA = assay: Oleate uptake by isolated mouse enterocytes after incubation with FATP4 oligonucleotides; assay type: cell-based; conditions: 100 μM oligonucleotide; for Inhibition of fatty acid (oleate) uptake over time: 48 h, 25 μM oleate, FIG. 40
[3] = 5 μM Bodipy-FA, 100 μM competitor (20-fold molar excess), 100% = effect of 200 μM lauric acid

T2 sequence (Q6P1M0 whole entry): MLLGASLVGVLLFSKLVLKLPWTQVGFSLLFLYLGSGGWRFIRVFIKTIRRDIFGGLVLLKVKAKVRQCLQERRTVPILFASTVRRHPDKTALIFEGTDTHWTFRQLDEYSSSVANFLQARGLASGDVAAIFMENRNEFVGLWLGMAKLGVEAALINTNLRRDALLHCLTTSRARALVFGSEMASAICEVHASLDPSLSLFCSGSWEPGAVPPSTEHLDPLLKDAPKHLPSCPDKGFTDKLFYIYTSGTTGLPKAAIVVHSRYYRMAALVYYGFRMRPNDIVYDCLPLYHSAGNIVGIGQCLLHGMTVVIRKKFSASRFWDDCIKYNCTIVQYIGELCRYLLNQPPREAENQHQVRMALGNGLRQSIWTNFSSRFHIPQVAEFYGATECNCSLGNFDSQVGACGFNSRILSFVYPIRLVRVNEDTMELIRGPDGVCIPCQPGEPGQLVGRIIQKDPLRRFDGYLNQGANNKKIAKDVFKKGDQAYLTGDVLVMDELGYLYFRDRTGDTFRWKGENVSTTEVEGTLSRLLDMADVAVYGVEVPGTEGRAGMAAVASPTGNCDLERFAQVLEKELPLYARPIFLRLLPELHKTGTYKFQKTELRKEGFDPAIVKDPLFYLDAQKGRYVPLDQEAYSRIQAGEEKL
T1 sequence (Q6P1M0 whole entry): as above

Compound: CC1=C(C/C=C(\C)CCC[C@H](C)CCC[C@H](C)CCCC(C)C)C(=O)c2ccccc2C1=O [3-Phytylamenadione (Vitamin K1), 3-Phytylamenadione]
- Competition (inhibition of Bodipy-FA uptake) (FATP4; [3]): − (0%-30% inhibition by the indicated substance)

Compound: CCCCCCCCCCCCCCCCCCCC(=O)O [Arachidic Acid]
- inhibition at 100 µM (FATP4; [3]): 70 to 100%

Compound: CCCCC/C=C\C/C=C\C/C=C\C/C=C\CCCC(=O)O [Arachidonate]
- Uptake, 293 Cells Control (293 cells): 3 pmol/min 10^6 cells
- Uptake, Enterocytes (enterocytes [1]): 0 pmol/min 10^6 cells

Compound: CCCC(=O)O [Butyrate, Butyric Acid]
- Uptake, 293 Cells Control (293 cells): 0 pmol/min 10^6 cells
- Uptake, Enterocytes (enterocytes [1]): 73 pmol/min 10^6 cells
- Transport of the substrate by isolated primary enterocytes (in words) (enterocytes [1]): absence of transport

Compound: CCCCCCCCCC(=O)O [Capric Acid]
- inhibition at 100 µM (FATP4; [3]): 70 to 100%

Compound: CCCCCC(=O)O [Caproic Acid]
- inhibition at 100 µM (FATP4): 0 to 30%

Compound: CCCCCCCCCCCCCCCCCCCCCCCCCC(=O)O [Cerotic Acid]
- inhibition at 100 µM (FATP4; [3]): 70 to 100%

Compound: CC(C)CCC[C@@H](C)[C@H]1CC[C@H]2[C@@H]3CC=C4C[C@@H](O)CC[C@]4(C)[C@H]3CC[C@]12C [Cholesterol]
- Uptake, 293 Cells Stably Expressing FATP4 (hsFATP4): 345 pmol/min 10^6 cells
- Uptake, FATP4 specific (hsFATP4): 26 pmol/min 10^6 cells
- Effect of hsFATP4 expression on uptake of the substrate (in words) (hsFATP4): not
- Uptake, 293 Cells Control (293 cells): 319 pmol/min 10^6 cells
- Uptake, Enterocytes (enterocytes [1]): 531 pmol/min 10^6 cells
- Transport of the substrate by isolated primary enterocytes (in words) (enterocytes [1]): more robust transport

Compound: CCCCCCCC/C=C\CCCCCCCC(=O)O[C@H]1CC[C@@]2(C)C(=CC[C@H]3[C@@H]4CC[C@H]([C@H](C)CCCC(C)C)[C@@]4(C)CC[C@@H]32)C1 [Cholesteryl Oleate]
- Competition (inhibition of Bodipy-FA uptake) (FATP4; [3]): − (0%-30% inhibition by the indicated substance)

Compound: CCCCCCCCCCCCCCCCCCCCCCCC(=O)O [Lignoceric Acid]
- inhibition at 100 µM (FATP4): 70 to 100%

Compound: CCCCC/C=C\C/C=C\CCCCCCCC(=O)O [Linolate, Linoleic Acid]
- Uptake, 293 Cells Stably Expressing FATP4 (hsFATP4): 673 pmol/min 10^6 cells
- Uptake, FATP4 specific (hsFATP4): 33 pmol/min 10^6 cells
- Effect of hsFATP4 expression on uptake of the substrate (in words) (hsFATP4): not
- Uptake, 293 Cells Control (293 cells): 640 pmol/min 10^6 cells
- Uptake, Enterocytes (enterocytes [1]): 116 pmol/min 10^6 cells
- Transport of the substrate by isolated primary enterocytes (in words) (enterocytes [1]): more robust transport
- inhibition at 100 µM (FATP4; [3]): 70 to 100%

Compound: CCCCCCCCCCCCCC(=O)O [Myristic Acid]
- inhibition at 100 µM (FATP4): 70 to 100%

Compound: CCCCCCCC(=O)O [Octanoate, Caprylic Acid]
- Uptake, 293 Cells Stably Expressing FATP4 (hsFATP4): 0 pmol/min 10^6 cells
- Uptake, FATP4 specific (hsFATP4): 0 pmol/min 10^6 cells
- Effect of hsFATP4 expression on uptake of the substrate (in words) (hsFATP4): not
- Uptake, 293 Cells Control (293 cells): 0 pmol/min 10^6 cells
- Uptake, Enterocytes (enterocytes [1]): 5 pmol/min 10^6 cells
- Transport of the substrate by isolated primary enterocytes (in words) (enterocytes [1]): absence of transport
- inhibition at 100 µM (FATP4): 0 to 30%

Compound: CCCCCCCC/C=C\CCCCCCCC(=O)O [Oleate, Oleic Acid]
- Uptake, 293 Cells Stably Expressing FATP4 (hsFATP4): 1122 pmol/min 10^6 cells
- Uptake, FATP4 specific (hsFATP4): 459 pmol/min 10^6 cells
- Effect of hsFATP4 expression on uptake of the substrate (in words) (hsFATP4): accelerated the uptake
- Uptake, 293 Cells Control (293 cells): 662 pmol/min 10^6 cells
- Uptake, Enterocytes (enterocytes [1]): 117 pmol/min 10^6 cells
- Transport of the substrate by isolated primary enterocytes (in words) (enterocytes [1]): preference
- Competition (inhibition of Bodipy-FA uptake) (FATP4; [3]): ++ (70%-100% inhibition)

Compound: CCCCCCCC/C=C\CCCCCCCC(=O)OCC [Oleic Acid Ethyl Ester]
- inhibition at 100 µM (FATP4; [3]): 0 to 30%

Compound: CCCCCCCC/C=C\CCCCCCCCOC(=O)CCCCCCC/C=C\CCCCCCCC [Oleic Acid Oley Ester]
- Competition (inhibition of Bodipy-FA uptake) (FATP4; [3]): − (0%-30% inhibition by the indicated substance)

Compound: CCCCCCCC/C=C\CCCCCCCC(=O)SCCNC(=O)CCNC(=O)[C@H](O)C(C)(C)COP(=O)(O)OP(=O)(O)OC[C@H]1O[C@@H](n2cnc3c(N)ncnc32)[C@H](O)[C@@H]1OP(=O)(O)O [Oleoyl CoA]
- inhibition at 100 µM (FATP4; [3]): 0 to 30%

Compound: CCCCCCCCCCCCCCCC(=O)O [Palmitate, Palmitic Acid]
- Uptake, 293 Cells Stably Expressing FATP4 (hsFATP4): 1695 pmol/min 10^6 cells
- Uptake, FATP4 specific (hsFATP4): 1131 pmol/min 10^6 cells
- Enhancement of rate of uptake by hsFATP4 expression over 293 cells transfected with vector alone (hsFATP4; stably transfected 293 cells, FIG. 97): approximately 3 fold
- Uptake, 293 Cells Control (293 cells): 564 pmol/min 10^6 cells
- Uptake, Enterocytes (enterocytes [1]): 3036 pmol/min 10^6 cells
- Transport of the substrate by isolated primary enterocytes (in words) (enterocytes [1]): preference
- inhibition at 100 µM (FATP4; [3]): 70 to 100%

Compound: CCCCCCCCCCCCCCCC(=O)OC [Palmitic Acid Methyl Ester]
- inhibition at 100 µM (FATP4; [3]): 0 to 30%

Compound: CCCCC[C@H](O)/C=C/[C@H]1[C@H](O)CC(=O)[C@@H]1C/C=C\CCCC(=O)O [Prostaglandin E2]
- Competition (inhibition of Bodipy-FA uptake) (FATP4; [3]): − (0%-30% inhibition by the indicated substance)

Compound: CC1=C(/C=C/C(C)=C/C=C/C(C)=C/C(=O)O)C(C)(C)CCC1 [Retinoic Acid (Pro-Vitamin A), Retinoic Acid]
- inhibition at 100 µM (FATP4; [3]): 30 to 50%

Compound: CCCCCCCCCCCCCCCCCC(=O)OC [Stearic Acid Methyl Ester]
- inhibition at 100 µM (FATP4): 0 to 30%

Compound: CCCCCCCCCCCCCCCCCC(=O)O [Stearic Acid]
- inhibition at 100 µM (FATP4; [3]): 50 to 70%

Compound: Ergocalciferol [Ergocalciferol (Vitamin D2)]
- Competition (inhibition of Bodipy-FA uptake) (FATP4; [3]): − (0%-30% inhibition by the indicated substance)

Compound: FATP4-AS2: Antisense oligo CCCCCACCAGAGAGGCTCC (SEQ ID NO:103), complementary to nucleotides 10 to 28 of the mouse FATP4 coding sequence (chemistry not given here)
- Methionine (amino acid) uptake (enterocytes [2]): not influenced
- Inhibition of fatty acid (oleate) uptake over time (FATP4 mRNA): ~50%
- Inhibition of oleate uptake over a 5 minute interval (FATP4 mRNA; 48 h incubation, FIG. 41): ~50%

Compound: FATP4-S2: Sense control oligo GGAGCCTCTCTGGTGGGGG (SEQ ID NO:105) (chemistry not given here)
- Inhibition of fatty acid (oleate) uptake over time (FATP4 mRNA): did not significantly influence the uptake

Compound: Tocopherol [Tocopherol (Vitamin E)]
- Competition (inhibition of Bodipy-FA uptake) (FATP4; [3]): − (0%-30% inhibition by the indicated substance)
